Measured values reported in ChEMBL document CHEMBL5113383, “Application of the All-Hydrocarbon Stapling Technique in the Design of Membrane-Active Peptides” (J Med Chem, 2022).
Positions of bridges follow the written chain, without caps; N, C: chain ends. Non-standard residues stand in square brackets, D forms with d. Residues, ends and D or L forms follow the SMILES beside them. S5 = C=CCCC[C@](C)(N)C(=O)O

Key:
[1] = Hemolytic activity in rabbit erythrocytes; assay type: toxicity, cell-based, Oryctolagus cuniculus, Erythrocyte
[2] = Hemolytic activity in human erythrocytes incubated for 30 mins; assay type: toxicity, cell-based, Erythrocyte
[3] = Hemolytic activity in human erythrocytes; assay type: toxicity, cell-based, Erythrocyte
[4] = Hemolytic activity in human erythrocytes incubated for 1 hr; assay type: toxicity, cell-based, Erythrocyte; conditions: read-out: Activity

Structure (SMILES): CC[C@H](C)[C@H](NC(=O)CNC(C)=O)C(=O)NCC(=O)N[C@@H](C)C(=O)N[C@H](C(=O)N[C@@H](CC(C)C)C(=O)N[C@@H](CCCCN)C(=O)N[C@H](C(=O)N[C@@H](CC(C)C)C(=O)N[C@H](C(=O)N[C@H](C(=O)NCC(=O)N[C@@H](CC(C)C)C(=O)N1CCC[C@H]1C(=O)N[C@@H](C)C(=O)N[C@@H](CC(C)C)C(=O)N[C@H](C(=O)N[C@@H](CO)C(=O)N[C@@H](Cc1c[nH]c2ccccc12)C(=O)N[C@H](C(=O)N[C@@H](CCCCN)C(=O)N[C@@H](CCCNC(=N)N)C(=O)N[C@@H](CCCCN)C(=O)N[C@@H](CCCNC(=N)N)C(=O)N[C@@H](CCC(N)=O)C(=O)N[C@@H](CCC(N)=O)C(N)=O)[C@@H](C)CC)[C@@H](C)CC)[C@@H](C)CC)[C@@H](C)O)C(C)C)C(C)C
- HC50 [1]: 2600 nM

Structure (SMILES): CC(=O)N[C@@H](CCCCN)C(=O)N[C@@]1(C)CCC/C=C\CCC[C@@](C)(C(=O)N[C@@H](CCCCN)C(N)=O)NC(=O)[C@H](CC(C)C)NC(=O)[C@H](CCCCN)NC(=O)[C@H](Cc2c[nH]c3ccccc23)NC1=O (Ac-K[S5]WKL[S5]K-NH2; staple (Z) 2-6)
- HC50 at 0.5 h [2]: < 1000 nM

Structure (SMILES): CC[C@H](C)[C@H](NC(=O)CNC(C)=O)C(=O)NCC(=O)N[C@@H](C)C(=O)N[C@H](C(=O)N[C@@H](CC(C)C)C(=O)N[C@@H](CCCCN)C(=O)N[C@H](C(=O)N[C@@H](CC(C)C)C(=O)N[C@H](C(=O)N[C@H](C(=O)NCC(=O)N[C@@H](CC(C)C)C(=O)N1CCC[C@H]1C(=O)N[C@]1(C)CCCCCC/C=C\CCC[C@@](C)(C(=O)N[C@@H](CCCCN)C(=O)N[C@@H](CCCNC(=N)N)C(=O)N[C@@H](CCC(N)=O)C(=O)N[C@@H](CCC(N)=O)C(N)=O)NC(=O)[C@H](CCCCN)NC(=O)[C@H]([C@@H](C)CC)NC(=O)[C@H](Cc2c[nH]c3ccccc23)NC(=O)[C@H](CO)NC(=O)[C@H]([C@@H](C)CC)NC(=O)[C@H](CC(C)C)NC1=O)[C@@H](C)O)[C@@H](C)O)C(C)C)C(C)C
- HC50 [1]: 700 nM

Structure (SMILES): CC(C)[C@@H]1NC(=O)[C@@](C)(NC(=O)[C@H](C)NC(=O)[C@H](CCCCN)NC(=O)CNC(=O)[C@H](Cc2ccccc2)NC(=O)[C@H](CCCCN)NC(=O)[C@H](CCCCN)NC(=O)[C@H](CCCCN)NC(=O)[C@H](CO)NC(=O)[C@H](Cc2cnc[nH]2)NC(=O)[C@]2(C)CCC/C=C\CCC[C@](C)(NC(=O)CN)C(=O)NCC(=O)N[C@@H](CCCCN)C(=O)N[C@@H](Cc3ccccc3)C(=O)N2)CCC/C=C\CCC[C@@](C)(C(=O)N[C@@H](C)C(=O)N[C@@H](CCCCN)C(=O)N[C@@H](CCCCN)C(N)=O)NC(=O)[C@H](CCC(=O)O)NC(=O)CNC1=O (H-G[S5]GKF[S5]HSKKKFGKA[S5]VGE[S5]AKK-NH2; staple (Z) 2-6, 16-20)
- HC50 [3]: > 400 µM
- hemolysis at 1 h [4]: < 1%

Structure (SMILES): CC(=O)N[C@@H](CCCCN)C(=O)N[C@@]1(C)CCC/C=C\CCC[C@@](C)(C(=O)N[C@@H](CCCCN)C(N)=O)NC(=O)[C@H](C)NC(=O)[C@H](CCCCN)NC(=O)[C@H](Cc2c[nH]c3ccccc23)NC1=O (Ac-K[S5]WKA[S5]K-NH2; staple (Z) 2-6)
- HC50 at 0.5 h [2]: 1400 nM

Structure (SMILES): CC(C)C[C@@H]1NC(=O)[C@H](CCCCN)NC(=O)[C@H](Cc2c[nH]c3ccccc23)NC(=O)[C@@](C)(NC(=O)[C@@H](N)CCCCN)CCC/C=C\CCC[C@@](C)(C(=O)N[C@@H](CCCCN)C(N)=O)NC1=O (H-K[S5]WKL[S5]K-NH2; staple (Z) 2-6)
- HC50 at 0.5 h [2]: < 1000 nM

Structure (SMILES): CC[C@H](C)[C@H](NC(=O)CN)C(=O)N[C@@H](CCSC)C(=O)N[C@@H](CO)C(=O)N[C@@H](CO)C(=O)N[C@@H](CC(C)C)C(=O)N[C@@H](CCSC)C(=O)N[C@@H](CCCCN)C(=O)N[C@@H](CCCCN)C(=O)N[C@@H](CC(C)C)C(=O)N[C@@]1(C)CCC/C=C\CCC[C@@](C)(C(=O)N[C@@H](CCCCN)C(N)=O)NC(=O)[C@H]([C@@H](C)CC)NC(=O)[C@H](Cc2cnc[nH]2)NC(=O)[C@H](C)NC1=O (H-GIMSSLMKKL[S5]AHI[S5]K-NH2; staple (Z) 11-15)
- HC50 [3]: 125 µM
